target: phosphorylated active hERK2 enzyme (Homo sapiens (Human), UniProt P28482); assay: Active Human ERK2 (hERK2) Activity Assay (IMAP-FP); format: biochemical; details: 0.5 nM hERK2, 30 μM ATP, 10 point titration
Experimental: Active Human ERK2 (hERK2) Activity Assay:
Activated ERK2 activity was determined in an IMAP-FP assay (Molecular Devices). Using this assay format, the potency (IC50) of each compound was determined from a 10 point (1:3 serial dilution, 3 μM starting compound concentration) titration curve using the following outlined procedure. […] Following a 15 minute compound & enzyme incubation, each reaction was initiated by the addition of 10 μL kinase buffer containing 2.45 μM ERK2 IMAP substrate peptides and 75 μM ATP. The final reaction in each well of 25 μL consists of 0.5 nM hERK2, 900 nM unlabeled peptide, 80 nM labeled-peptide, and 30 μM ATP. Phosphorylation reactions were allowed to proceed for 60 minutes and were immediately quenched by the addition of 60 μL IMAP detection beads (1:1000 dilutions) in IMAP binding buffer (Molecular Devices) with 24 mM NaCl. Plates were read on EnVision reader after 60 minutes binding equilibration using Fluorescence Polarization protocol (Perkin Elmer).

Chain of phosphorylated active hERK2 enzyme (P28482 whole entry): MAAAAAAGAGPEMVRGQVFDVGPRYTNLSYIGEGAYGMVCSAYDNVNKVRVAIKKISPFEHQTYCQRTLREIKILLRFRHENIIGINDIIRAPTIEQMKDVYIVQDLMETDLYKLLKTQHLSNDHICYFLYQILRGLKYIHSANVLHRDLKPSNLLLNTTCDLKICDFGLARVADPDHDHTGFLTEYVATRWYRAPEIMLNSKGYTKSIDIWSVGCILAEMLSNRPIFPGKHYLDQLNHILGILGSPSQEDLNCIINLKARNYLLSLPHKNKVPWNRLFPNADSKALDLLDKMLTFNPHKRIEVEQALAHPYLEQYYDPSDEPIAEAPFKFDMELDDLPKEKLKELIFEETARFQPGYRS

| IC50 [nM] | Compound |
| --- | --- |
| 0.45 | C[C@@H](NC(=O)Nc1cc2[nH]nc(-c3ccc(F)cc3)c2c(CO)n1)c1ccccc1 [Example 11, 1-[3-(4-fluorophenyl)-4-(hydroxymethyl)-1H-pyrazolo[4,3-c]pyridin-6-yl]-3-[(1R)-1-phenylethyl]urea] |
| 8.64 | CC(C)(C)[C@@H](NC(=O)Nc1cc2[nH]nc(-c3ccc(F)cc3)c2c(CO)n1)c1ccccc1 [Example 17, 1-[(1R)-2,2-dimethyl-1-phenylpropyl]-3-[3-(4-fluorophenyl)-4-(hydroxymethyl)-1H-pyrazolo[4,3-c]pyridin-6-yl]urea] |
| 0.31 | CC(C)(O)[C@@H](NC(=O)Nc1cc2[nH]nc(-c3ccc(F)cc3)c2c(CO)n1)c1ccccc1 [Example 13, 1-[3-(4-fluorophenyl)-4-(hydroxymethyl)-1H-pyrazolo[4,3-c]pyridin-6-yl]-3-[(1S)-2-hydroxy-2-methyl-1-phenylpropyl]urea] |
| 0.75 | C[C@@H](O)[C@@H](NC(=O)Nc1cc2[nH]nc(C3CC3)c2c(CO)n1)c1ccccc1 [Example 9, 1-[3-cyclopropyl-4-(hydroxymethyl)-1H-pyrazolo[4,3-c]pyridin-6-yl]-3-[(1S,2R)-2-hydroxy-1-phenylpropyl]urea] |
| 5.52 | CC(O)c1n[nH]c2cc(NC(=O)N[C@H](C)c3ccccc3)nc(CO)c12 (stereo partly drawn) [Example 27, 1-(3-(1-hydroxyethyl)-4-(hydroxymethyl)-1H-pyrazolo[4,3-c]pyridin-6-yl)-3-((R)-1-phenylethyl)urea] |
| 0.39 | Cc1cc(-c2n[nH]c3cc(NC(=O)N[C@H](C)c4ccccc4)nc(CO)c23)ccn1 [Example 4, (R)-1-(4-(hydroxymethyl)-3-(2-methylpyridin-4-yl)-1H-pyrazolo[4,3-c]pyridin-6-yl)-3-(1-phenylethyl)urea] |
| 1.13 | COCc1nc(NC(=O)N[C@H](C)c2ccccc2)cc2[nH]nc(-c3ccnc(C)c3)c12 [Example 20, (R)-1-(4-(Methoxymethyl)-3-(2-methylpyridin-4-yl)-1H-pyrazolo[4,3-c]pyridin-6-yl)-3-(1-phenylethyl)urea] |
| 12.7 | CC(=O)c1n[nH]c2cc(NC(=O)N[C@H](C)c3ccccc3)nc(CO)c12 [Example 26, (R)-1-(3-acetyl-4-(hydroxymethyl)-1H-pyrazolo[4,3-c]pyridin-6-yl)-3-(1-phenylethyl)urea] |
| 0.37 | Cc1cc(-c2n[nH]c3cc(NC(=O)N[C@H](C)c4ccccc4)nc(C)c23)ccn1 [Example 1, (R)-1-(4-Methyl-3-(2-methylpyridin-4-yl)-1H-pyrazolo[4,3-c]pyridin-6-yl)-3-(1-phenylethyl)urea] |
| 14.1 | CC(F)(F)c1n[nH]c2cc(NC(=O)N[C@@H](c3ccccc3)C(C)(C)O)nc(CO)c12 [Example 28, (S)-1-(3-(1,1-difluoroethyl)-4-(hydroxymethyl)-1H-pyrazolo[4,3-c]pyridin-6-yl)-3-(2-hydroxy-2-methyl-1-phenylpropyl)urea] |
| 13.2 | C[C@@H](NC(=O)Nc1cc2[nH]nc(C(F)(F)F)c2c(CO)n1)c1ccccc1 [Example 29, (R)-1-(4-(hydroxymethyl)-3-(trifluoromethyl)-1H-pyrazolo[4,3-c]pyridin-6-yl)-3-(1-phenylethyl)urea] |
| 1.64 | C[C@@H](NC(=O)Nc1cc2[nH]nc(-c3ccnc(C#N)c3)c2c(CO)n1)c1ccccc1 [Example 12, 1-[3-(2-cyanopyridin-4-yl)-4-(hydroxymethyl)-1H-pyrazolo[4,3-c]pyridin-6-yl]-3-[(1R)-1-phenylethyl]urea] |
| 0.61 | Cc1nc(NC(=O)N[C@@H](c2ccccc2)C(C)(C)O)cc2[nH]nc(C(F)F)c12 [Example 21, (S)-1-(3-(difluoromethyl)-4-methyl-1H-pyrazolo[4,3-c]pyridin-6-yl)-3-(2-hydroxy-2-methyl-1-phenylpropyl)urea] |
| 0.37 | CC(C)(O)[C@@H](NC(=O)Nc1cc2[nH]nc(-c3ccccc3)c2c(CO)n1)c1ccccc1 [Example 18, 1-[(1S)-2-hydroxy-2-methyl-1-phenylpropyl]-3-[4-(hydroxymethyl)-3-phenyl-1H-pyrazolo[4,3-c]pyridin-6-yl]urea] |
| 0.66 | Cc1cc(-c2n[nH]c3cc(NC(=O)N[C@H](COC(F)F)c4ccccc4)nc(CO)c23)ccn1 [Example 10, 1-[(1S)-2-(difluoromethoxy)-1-phenylethyl]-3-[4-(hydroxymethyl)-3-(2-methylpyridin-4-yl)-1H-pyrazolo[4,3-c]pyridin-6-yl]urea] |
| 4.34 | CC(C)(O)[C@@H](NC(=O)Nc1cc2[nH]nc(C3CC3)c2c(CO)n1)c1ccccc1 [Example 6, 1-[3-cyclopropyl-4-(hydroxymethyl)-1H-pyrazolo[4,3-c]pyridin-6-yl]-3-[(1S)-2-hydroxy-2-methyl-1-phenylpropyl]urea] |
| 0.53 | CC(C)(O)[C@@H](NC(=O)Nc1cc2[nH]nc(-c3ccc(C#N)cc3)c2c(CO)n1)c1ccccc1 [Example 19, 1-[3-(4-cyanophenyl)-4-(hydroxymethyl)-1H-pyrazolo[4,3-c]pyridin-6-yl]-3-[(1S)-2-hydroxy-2-methyl-1-phenylpropyl]urea] |
| 0.29 | CC(C)(O)[C@@H](NC(=O)Nc1cc2[nH]nc(-c3ccc(F)cc3)c2c(CO)n1)c1ccc(F)cc1 [Example 15, 1-[(1S)-1-(4-fluorophenyl)-2-hydroxy-2-methylpropyl]-3-[3-(4-fluorophenyl)-4-(hydroxymethyl)-1H-pyrazolo[4,3-c]pyridin-6-yl]urea] |
| 0.92 | C[C@@H](NC(=O)Nc1cc2[nH]nc(-c3ccnc(F)c3)c2c(CO)n1)c1ccccc1 [Example 3, (R)-1-(3-(2-fluoropyridin-4-yl)-4-(hydroxymethyl)-1H-pyrazolo[4,3-c]pyridin-6-yl)-3-(1-phenylethyl)urea] |
| 0.49 | CC(C)(O)[C@@H](NC(=O)Nc1cc2[nH]nc(C(F)F)c2c(CO)n1)c1ccc(F)cc1 [Example 23, 1-[3-(difluoromethyl)-4-(hydroxymethyl)-1H-pyrazolo[4,3-c]pyridin-6-yl]-3-[(1S)-1-(4-fluorophenyl)-2-hydroxy-2-methylpropyl]urea] |
| 0.83 | CC(C)(O)[C@@H](NC(=O)Nc1cc2[nH]nc(C3CC3)c2c(CO)n1)c1ccc(F)cc1 [Example 7, 1-[3-cyclopropyl-4-(hydroxymethyl)-1H-pyrazolo[4,3-c]pyridin-6-yl]-3-[(1S)-1-(4-fluorophenyl)-2-hydroxy-2-methylpropyl]urea] |
| 0.72 | C[C@@H](NC(=O)Nc1cc2[nH]nc(C3CC3)c2c(CO)n1)c1ccccc1 [Example 5, (R)-1-(3-cyclopropyl-4-(hydroxymethyl)-1H-pyrazolo[4,3-c]pyridin-6-yl)-3-(1-phenylethyl)urea] |
| 0.75 | CC(C)(O)[C@@H](NC(=O)Nc1cc2[nH]nc(C(F)F)c2c(CO)n1)c1ccccc1 [Example 22, (S)-1-(3-(difluoromethyl)-4-(hydroxymethyl)-1H-pyrazolo[4,3-c]pyridin-6-yl)-3-(2-hydroxy-2-methyl-1-phenylpropyl)urea] |
| 1.85 | C[C@@H](NC(=O)Nc1cc2[nH]nc(CO)c2c(CO)n1)c1ccccc1 [Example 25, (R)-1-(3,4-bis(hydroxymethyl)-1H-pyrazolo[4,3-c]pyridin-6-yl)-3-(1-phenylethyl)urea] |
| 1.25 | C[C@@H](NC(=O)Nc1cc2[nH]nc(C(F)F)c2c(CO)n1)c1ccccc1 [Example 24, 1-[3-(difluoromethyl)-4-(hydroxymethyl)-1H-pyrazolo[4,3-c]pyridin-6-yl]-3-[(1R)-1-phenylethyl]urea] |
| 1.24 | Cc1nc(NC(=O)N[C@H](C)c2ccccc2)cc2[nH]nc(-c3ccnc(F)c3)c12 [Example 2, 1-[3-(2-fluoropyridin-4-yl)-4-methyl-1H-pyrazolo[4,3-c]pyridin-6-yl]-3-[(1R)-1-phenylethyl]urea] |
